Patent US12544372B2, “Methods of treating rheumatoid arthritis, chronic spontaneous urticaria, and systemic lupus erythematosis using an inhibitor of Bruton's tyrosine kinase” (Genentech, Inc., priority 2019, dated 2026)
Marks after values point to notes of the source that are not given here.

Key:
Assay type in all cases: in vivo, human
CCL4 = assay: RA study biomarker: CCL4 (immunoassay)
Protocol: (§1) […] The biomarkers evaluated in this assessment were chemokine [C-C motif] ligand 4 (CCL4), IL-6, and TNF-like cytokine 1A (TL1A). Total IgM, IgG, rheumatoid factor IgM autoantibody (RF), CCL4, TL1A, IL-6, and anti-CCP autoantibody (ACPA IgG) levels were analyzed with immunoassays. CD19^+ B cells and CD3^+ T cells were measured by flow cytometry. The proportion of patients achieving an ACR50 response at week 12 and the change in DAS28 score by week 12 were assessed relative to seropositivity (RF and/or ACPA positive at baseline) or baseline levels of RF in both cohorts. To select which biomarkers to evaluate in this trial, BTK-dependent myeloid biomarkers were identified using peripheral blood CD14^+ monocytes stimulated with immune-complexes in the presence or absence of a BTK inhibitor. In brief, the expression levels of genes in human monocytes were assayed under conditions of no stimulation; with human serum albumin immune complex stimulation; with stimulation and a low concentration of a BTK inhibitor with similar characteristics to fenebrutinib; or with stimulation and a high concentration of the BTK inhibitor. […] Genes annotated with cytokine activity were selected. The color bar represents normalized gene expression.

Total IgG = assay: RA study biomarker: total IgG
Protocol: as §1

[1] = tested on: patients with refractory chronic spontaneous urticaria; assay: Phase II CSU study (Cohorts 1 and 2): UAS7, weekly itch, weekly hives
Description: A Phase II, Multicenter, Randomized, Double-Blind, Placebo-Controlled Pilot and Dose-Ranging Study of Fenebrutinib in Patients with Refractory Chronic Spontaneous Urticaria (CSU)
This study was designed to evaluate the efficacy and safety of fenebrutinib compared with placebo as add-on therapy for the treatment of adult patients 18-75 years old who have been diagnosed with CSU and who remain symptomatic despite treatment with H1 antihistamines. Specific objectives and corresponding endpoints for the study are outlined below.
This pilot and dose-ranging study is a multicenter, randomized, double-blind, placebo-controlled, parallel-group study of the efficacy and safety of fenebrutinib as add-on therapy for the treatment of adult patients 18-75 years old who have been diagnosed with CSU and who remain symptomatic despite treatment with H1 antihistamines (including doses up to 4 times the approved dose per local treatment guidelines). The study consists of two cohorts. Cohort 1 enrolled 41 patients across multiple sites. After screening, eligible patients were randomly allocated in a ˜2:1 ratio to receive fenebrutinib 200 mg orally (PO) twice daily (BID) (n=28) or matching placebo (n=13) for 8 weeks and maintain stable doses of standard-of-care H1 antihistamine therapy throughout the study. A dose-ranging cohort, Cohort 2, enrolled approximately 120 patients randomly allocated in a 1:1:1:1 ratio received 50 mg PO daily (QD), 150 mg PO QD, 200 mg PO BID of GDC-0853, or placebo, respectively, for 8 weeks while maintaining stable doses of standard-of-care H1 antihistamine therapy throughout the study.
Both cohorts consist of three study periods over 14 weeks: (i) a screening period (Day −14 to Day −1), (ii) a treatment period [Day 1 to Day 57 (Week 0 to Week 8)], and (iii) a follow-up period [Day 57 to Day 85 (Week 8 to Week 12)].
The primary efficacy endpoint was measured at Week 8 (Day 57). Patients must have maintained stable doses of their pre-randomization H1 antihistamine therapy throughout the treatment period. After completion of the 8-week treatment period, all patients in both cohorts will enter a 4-week safety follow-up period in which no fenebrutinib treatment is given as patients maintain stable doses of their pre-randomization H1 antihistamine therapy.
The primary efficacy endpoint was the change in baseline in the UAS7 at Week 8 (Day 57). The change in the UAS7 (Table 9) is a summation of the average daily (a.m./p.m.) scores on the UAS (range: 0-6), which is a composite diary score with numeric severity intensity ratings on a scale of 0-3 (0=none to 3=intense/severe) for two domains: the intensity of the itch and the number of wheals/hives. The UAS is recorded by the patient twice daily (morning and evening) in the patient Urticaria Patient Daily eDiary.
Continuous longitudinal efficacy endpoints will be analyzed using a mixed model for repeated measures (MMRM) and descriptive statistics as appropriate. Additional model covariates will include baseline UAS7 and its interaction with visit. Missing data will be handled by the model under the missing-at-random assumption without need for imputation.
The secondary efficacy measurements are as described above in the “Study Objectives” section of this Example 2, and apply the UAS7 score and the weekly itch score measurement. Weekly itch scores are measured as part of the study patient's Urticaria Patient Daily eDiary.

[2] = tested on: Plasmablast signature (IgJ, Mzb1, Txndc5); assay: SLE study biomarker: plasmablast signature (RNA from blood)
Protocol: (§2) The following biomarkers were explored according to the biomarker objectives provided above in the Study Objectives. In Table 13, biomarkers are measured at baseline and subsequent timepoints during and after treatment. One set of biomarkers evaluated is the plasmablast signature. Plasmablasts are rapidly dividing, short-lived antibody secreting cells. While they represent a small proportion of B cells in the blood, they are responsible for a majority of antibody transcripts found in whole blood mRNA. The plasmablast signature comprises the biomarkers IgJ, Mzbl, and Txndc5. The gene expression of IgJ, Mzbl, and Txndc5 may be measured, for example, a polypeptide expression by evaluating the level of mRNA for said gene in a patient's blood relative to a reference level.

C4 = assay: SLE study biomarker: C4
Protocol: as §2

[3] = Cohort 1, 200 mg BID vs placebo

In the case of C[C@H]1CN(C2COC2)CCN1c1ccc(Nc2cc(-c3ccnc(N4CCn5c(cc6c5CC(C)(C)C6)C4=O)c3CO)cn(C)c2=O)nc1 [fenebrutinib, (S)-2-(3′-(hydroxymethyl)-1-methyl-5-((5-(2-methyl-4-(oxetan-3-yl)piperazin-1-yl)pyridin-2-yl)amino)-6-oxo-1,6-dihydro-[3,4′-bipyridin]-2′-yl)-7,7-dimethyl-2,3,4,6,7,8-hexahydro-1H-cyclopenta[4,5]pyrrolo[1,2-a]pyrazin-1-one], the “CCL4 Reduction as % of Baseline” value (CCL4; Cohort 1, 50 mg QD, Week 2) is reported as 78%*, the “CCL4 Reduction as % of Baseline” value (CCL4; Cohort 1, 50 mg QD, Week 4) is reported as 84%* and the “CCL4 Reduction as % of Baseline” value (CCL4; Cohort 1, 50 mg QD, Week 12) is reported as 78%*. For the same compound, the “CCL4 Reduction as % of Baseline” value (CCL4; Cohort 1, 150 mg QD, Week 2) was 73%*, the “CCL4 Reduction as % of Baseline” value (CCL4; Cohort 1, 150 mg QD, Week 4) was 79%* and the “CCL4 Reduction as % of Baseline” value (CCL4; Cohort 1, 150 mg QD, Week 12) was 86%*. The “CCL4 Reduction as % of Baseline” value (CCL4; Cohort 1, 200 mg BID, Week 2) was 71%*, the “CCL4 Reduction as % of Baseline” value (CCL4; Cohort 1, 200 mg BID, Week 4) was 74%* and the “CCL4 Reduction as % of Baseline” value (CCL4; Cohort 1, 200 mg BID, Week 12) was 76%*. For the same compound, the “CCL4 reduction relative to placebo” value (CCL4; cohort 1, 200 mg twice daily, largest reduction) was −28%, the “CCL4 levels compared to placebo” value (CCL4; cohorts 1 and 2, all doses, by week 1) was “reduced CCL4 levels” and the “Total IgG Reduction as % of Baseline” value (Total IgG; Cohort 1, 150 mg QD, Week 4) was 97%*. For the same compound, the “Total IgG Reduction as % of Baseline” value (Total IgG; Cohort 1, 150 mg QD, Week 8) was 94%*, the “Total IgG Reduction as % of Baseline” value (Total IgG; Cohort 1, 150 mg QD, Week 12) was 95%* and the “Total IgG Reduction as % of Baseline” value (Total IgG; Cohort 1, 200 mg BID, Week 4) was 95%*. The “Total IgG Reduction as % of Baseline” value (Total IgG; Cohort 1, 200 mg BID, Week 8) was 92%*, the “Total IgG Reduction as % of Baseline” value (Total IgG; Cohort 1, 200 mg BID, Week 12) was 93%* and the “IgG absolute reduction relative to placebo” value (Total IgG; cohort 1, 200 mg twice daily, by week 12) was -115 mg/dL. The “IgG reduction relative to placebo” value (Total IgG; cohort 2, 200 mg twice daily, by week 12) was -101 mg/dL, the “UAS7 - Change from BL to Week 4, Mean (SD)” value ([1]; Cohort 1, 200 mg BID) was −21.1 (11.3) and the “UAS7 - Change from BL to Week 4, Median” value ([1]; Cohort 1, 200 mg BID) was −22.5. For the same compound, the “UAS7 - Change from BL to Week 8, Mean (SD)” value ([1]; Cohort 1, 200 mg BID) was −21.6 (11.8), the “UAS7 - Change from BL to Week 8, Median” value ([1]; Cohort 1, 200 mg BID) was −23.0 and the “Weekly Hive Score - Change from BL to Week 4, Mean (SD)” value ([1]; Cohort 1, 200 mg BID) was −11.6 (6.8). For the same compound, the “Weekly Hive Score - Change from BL to Week 4, Median” value ([1]; Cohort 1, 200 mg BID) was −14.0, the “Weekly Hive Score - Change from BL to Week 8, Mean (SD)” value ([1]; Cohort 1, 200 mg BID) was −12.2 (7.1) and the “Weekly Hive Score - Change from BL to Week 8, Median” value ([1]; Cohort 1, 200 mg BID) was −14.0. For the same compound, the “Weekly Itch Severity - Change from BL to Week 4, Mean (SD)” value ([1]; Cohort 1, 200 mg BID) was −9.5 (5.4), the “Weekly Itch Severity - Change from BL to Week 4, Median” value ([1]; Cohort 1, 200 mg BID) was −9.0 and the “Weekly Itch Severity - Change from BL to Week 8, Mean (SD)” value ([1]; Cohort 1, 200 mg BID) was −9.4 (5.6). The “Weekly Itch Severity - Change from BL to Week 8, Median” value ([1]; Cohort 1, 200 mg BID) was −9.0, the “UAS7 - Change from BL to Week 4, Treatment difference in LS means, 90% CI” value [1, 3] was −12.5 (−18.9, −6.1) 0.002 and the “UAS7 - Change from BL to Week 8, Treatment difference in LS means, 90% CI” value [1, 3] was −4.3 (−11.3, 2.7) 0.305. For the same compound, the “Weekly Hive Score - Change from BL to Week 4, Treatment difference in LS means, 90% CI” value [1, 3] was −7.5 (−11.2, −3.7) 0.002, the “Weekly Hive Score - Change from BL to Week 8, Treatment difference in LS means, 90% CI” value [1, 3] was −2.8 (−6.9, 1.4) 0.269 and the “Weekly Itch Severity - Change from BL to Week 4, Treatment difference in LS means, 90% CI” value [1, 3] was −5.5 (−8.5, −2.6) 0.003. The “Weekly Itch Severity - Change from BL to Week 8, Treatment difference in LS means, 90% CI” value [1, 3] was −1.3 (−4.5, 1.8) 0.479, the “patients well-controlled (UAS7≤6)” value ([1]; Cohort 1, 200 mg BID, Week 4) was 64% and the “well-controlled patients, % treatment difference over placebo” value ([1]; Cohort 1, 200 mg BID, Week 4) was 48.6%. The “patients well-controlled (UAS7≤6)” value ([1]; Cohort 1, 200 mg BID, Week 8) was 65%, the “well-controlled patients, % treatment difference over placebo” value ([1]; Cohort 1, 200 mg BID, Week 8) was 31.9% and the “weekly itch scores (treatment difference in LS means)” value ([1]; Cohort 1 and Cohort 2, each treatment group, all comers, Week 8) was “reduced weekly itch scores in each group”. The “Plasmablast signature, Median Change from Baseline at Week 48” value ([2]; 150 mg QD) was −54.3%*, the “Plasmablast signature, Median Change from Baseline at Week 48” value ([2]; 200 mg BID) was −51.7%* and the “C4, Median Change from Baseline at Week 48” value (C4; 150 mg QD) was “+0.02* g/L”. For the same compound, the “C4, Median Change from Baseline at Week 48” value (C4; 200 mg BID) was “+0.01* g/L”.
